Test results: US10195156B2, “Compounds and compositions for intracellular delivery of agents” (ModernaTX, Inc., priority 2015, dated 2019)
“Also recorded” adds a separate entry of the source.

Experiments:
[1] = Particle size and polydispersity index of nanoparticle compositions (Zetasizer Nano ZS); type: physicochemical
Summary of the method: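 In 1×PBS, the compositions were sized on a Zetasizer Nano ZS, which also reported their polydispersity index.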

[2] = system: luciferase (Luc) mRNA expression; experiment: Expression of Luc induced by sample formulations, whole-body bioluminescence after intravenous administration; type: in vivo
Summary of the method: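 Mice (n=6) dosed intravenously with Luc mRNA nanoparticle formulations at 0.5 mg/kg. Whole-body bioluminescence measured at 3, 6 and 24 h. Standard MC3 formulation and PBS control run alongside.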

[3] = system: modified luciferase expression; experiment: Expression of Luc in different organs (liver, lung, spleen, femur) 6 hours after intravenous administration; type: in vivo; conditions: i.v., 0.5 mpk
Procedure: The efficacy of the nanoparticle compositions presented in Tables 1, 1a, 17-1, 19-1, 20-1 and 21-1 was further evaluated by measuring the expression of modified luciferase in the liver, lung, spleen, and femur upon administration of a given composition. Formulations were administered intravenously to mice (n=3) at a dosage of 0.5 mpk and bioluminescence measured after 6 hours. The standard MC3 formulation and a PBS control were also tested.

IL-6 = experiment: Cytokine production induced by sample formulations: IL-6; type: in vivo; conditions: mice, i.v., 0.5 mpk, 6 hours; for IL-6: in pg/mL (unit assumed)
Summary of the method: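 Mice received nanoparticle formulations intravenously at 0.5 mpk, with standard MC3 formulation and PBS as controls. Cytokine concentrations were measured 6 hours after dosing.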

Luc expression [4] = experiment: Luc expression in CD-1 mice (AUC relative to MC3); type: in vivo; conditions: Table 7c
Procedure: FIG. 15 is a graph summarizing luciferase expression levels at 6 h after administration of nanoparticle compositions containing compounds of the disclosure to CD-1 mice at a dose of 0.5 mpk. Total light flux values were acquired via body luminescent imaging (BLI) 6 h after administration. In this Figure, the numbers 1-7 and 10 refer to the compositions containing Compounds 4-10 and MC3 respectively.
(§1) In contrast, hEPO expression in rats induced by administration of a nanoparticle composition including a compound according to one of formulae (I), (Ia1)-(Ia6), (Ib), (II), (IIa), (III), and (IIIa) was substantially […] than that measured for MC3. […] Table 7c and 7d show additional protein expressions and clearance data from compositions with various compounds disclosed herein as compared to with MC3.

Luc expression [5] = experiment: ApoE dependence of luciferase expression (ApoE knockout vs. wild-type mice); type: in vivo; conditions: 0.5 mpk, 6 h
Excerpt: FIG. 17 is a pair of graphs showing the ApoE dependence of luciferase (“Luc”) expression following administration of a composition containing Luc mRNA and Compound 4 to mice at a dose 0.5 mpk. The expression following administration of a composition containing Luc mRNA and MC3 is presented for comparison. […] The % change in Luc expression in livers of ApoE knockout vs. wild-type mice (i.e., (WT mean expression-KO mean expression)/WT mean expression]*100%) was 91.9% for Compound 4 and 97.5% for MC3. […] The % change in expression in spleens of ApoE knockout vs. wild-type mice was 4.34% for Compound 4 and 72.2% for MC3. Numbers 1-4 refer to the following: 1: Composition containing Compound 4, administered to ApoE knockout mice; 2: Composition containing Compound 4, administered to wild-type mice; 3: Composition containing MC3, administered to ApoE knockout mice; 4: Composition containing MC3, administered to wild-type mice.

[6] = Lipid clearance: % dose remaining in mouse liver 6 h and 24 h after administration of nanoparticle compositions; type: in vivo, CD-1 mice
Excerpt: as §1

[7] = Table 1, rows without footnote mark
[8] = Table 1, rows without footnote mark (lipid:DOPE:cholesterol:PEG-DMG 40:20:38.5:1.5, Luc mRNA; MC3 standard formulation)
[9] = Table 5, hEPO mRNA, 50:10:38.5:1.5 Lipid:DSPC:Chol:PEG-DMG
[10] = Table 20-1, rows without footnote mark
[11] = Table 2, mice, i.v., 0.5 mg/kg, 3 hours
[12] = Table 17-2, mice, i.v., 0.5 mg/kg
[13] = Table 19-2, mice, i.v., 0.5 mg/kg
[14] = Table 20-2, mice, i.v., 0.5 mg/kg
[15] = Table 21-2, mice, i.v., 0.5 mg/kg
[16] = Table 5, hEPO mRNA, 40:20:38.5:1.5 Lipid:DOPE:Chol:PEG-DMG

## CCCCCC=CCC=CCCCCCCCCC(CCCCCCCCC=CCC=CCCCCC)OC(=O)CCCN(C)C (stereo not shown) [MC3, heptatriaconta-6,9,28,31-tetraen-19-yl 4-(dimethylamino)butanoate, reference compound]
[1]; [7]
  PDI: 0.117
[1]; [8]
  Size (nm): 86.2 nm
[1]; Table 1b
  PDI: 0.17
  Size (nm): 74.7 nm
[1]; [9]
  PDI: 0.11
  Size (nm): 76.5 nm
[1]; Table 17-1
  PDI: 0.138
  Size (nm): 83.8 nm
[1]; Table 19-1
  PDI: 0.122
  Size (nm): 83.3 nm
[1]; [10]
  PDI: 0.117
  Size (nm): 84.0 nm
[1]; Table 21-1
  PDI: 0.1191
  Size (nm): 91.4 nm
[2]; [11]
  Total Flux 3 hours: 1.63E+10
[2]; Table 2, mice, i.v., 0.5 mg/kg
  Total Flux 6 hours: 1.73E+10
  Total Flux 24 hours: 1.16E+09
[2]; Table 17-2, mice, i.v., 0.5 mg/kg, 3 hours
  Total Flux 3 hours: 1.63E+10
[2]; [12]
  Total Flux 6 hours: 2.13E+10
  Total Flux 24 hours: 1.01E+09
[2]; Table 19-2, mice, i.v., 0.5 mg/kg, 3 hours
  Total Flux 3 hours: 1.53E+10
[2]; [13]
  Total Flux 6 hours: 1.73E+10
  Total Flux 24 hours: 1.13E+09
[2]; Table 20-2, mice, i.v., 0.5 mg/kg, 3 hours
  Total Flux 3 hours: 1.73E+10
[2]; [14]
  Total Flux 6 hours: 1.94E+10
  Total Flux 24 hours: 8.48E+08
[2]; Table 21-2, mice, i.v., 0.5 mg/kg, 3 hours
  Total Flux 3 hours: 1.69E+10
[2]; [15]
  Total Flux 6 hours: 2.87E+10
  Total Flux 24 hours: 2.23E+10
[2]; mice, i.v., 0.5 mg/kg, 3 hours
  total flux after 3 hours, rank within the named table (in words): highest after 3 hours
[2]; mice, i.v., 0.5 mg/kg, each time point
  total flux / Luc expression, rank within the named table (in words): highest total flux; also recorded: highest luciferase expression
[3]; Table 3, mice
  Total Flux Femur: 3.08E+06
  Total Flux Lung: 8.61E+06
  Total Flux Spleen: 1.95E+07
[3]; Table 3, mice, liver
  Total Flux Liver: 2.31E+09
[3]; Table 17-3, mice
  Total Flux Femur: 6.03E+06
  Total Flux Lung: 7.25E+06
  Total Flux Spleen: 2.62E+07
[3]; Table 17-3, mice, liver
  Total Flux Liver: 2.75E+09
[3]; Table 19-3, mice, liver
  Total Flux Liver: 2.39E+09
[3]; Table 19-3, mice
  Total Flux Lung: 5.83E+06
  Total Flux Spleen: 2.45E+07
[3]; Table 20-3, mice
  Total Flux Femur: 2.60E+06
  Total Flux Lung: 1.28E+07
  Total Flux Spleen: 2.85E+07
[3]; Table 20-3, mice, liver
  Total Flux Liver: 2.48E+09
[3]; Table 21-3, mice, liver
  Total Flux Liver: 3.05E+09
[3]; Table 21-3, mice
  Total Flux Lung: 6.60E+06
  Total Flux Spleen: 4.73E+07
[3]; mice, each organ or overall, 0.5 mg/kg
  total flux in organs, rank or organ comparison (in words): highest total flux; also recorded: highest expression in each organ
[3]; mice, liver
  total flux in the liver, rank within the named table (in words): highest
IL-6; Table 4
  IL-6: 92
IL-6; Table 17-4
  IL-6: 107
IL-6; Table 19-4
  IL-6: 65.7
IL-6; Table 20-4, formula (20-I)
  IL-6: 119.5
IL-6
  IL-6 induction, rank within the named table (in words): highest IL-6 and IP-10 levels
Luc expression [4]
  AUC (p/s*h): 1.42E+11 p/s*h
Luc expression [5]; FIG. 17 Graph A, liver
  % change in Luc expression in livers of ApoE knockout vs. wild-type mice: 97.5%
Luc expression [5]; FIG. 17 Graph B, spleen
  % change in expression in spleens of ApoE knockout vs. wild-type mice: 72.2%
[6]; 6 h, CD-1 mice
  % Dose remaining 6 h CD-1 mice: 88%
[6]; 24 h, CD-1 mice
  % Dose remaining 24 h CD-1 mice: 55%
[6]; Table 7c, 6 hr
  % Dose Remaining 6 hr: 55.70%
[6]; Table 7c, 24 hr
  % Dose Remaining 24 hr: 55.43%
[6]; mouse liver, 24 h
  % dose remaining Mouse liver (24 h): 55%

## CCCCCCCCCCCCN(CCCCCCCCCCCC)CCN(CCCCCCCCCCCC)CCN1CCN(CCN(CCCCCCCCCCCC)CCCCCC(=O)OCCCCC)CC1 [Compound 12, Pentyl 6-((2-(4-(2-((2-(didodecylamino)ethyl)(dodecyl)amino)ethyl)piperazin-1-yl)ethyl)(dodecyl)amino)hexanoate]
[1]; [7]
  PDI: 0.096
[1]; [8]
  Size (nm): 87.8 nm
[1]; [16]
  PDI: 0.13
  Size (nm): 87.5 nm
[2]; [11]
  Total Flux 3 hours: 1.06E+10
[2]; Table 2, mice, i.v., 0.5 mg/kg
  Total Flux 6 hours: 1.38E+10
  Total Flux 24 hours: 6.03E+08
[2]; Table 7a
  Luc expression in mice compared with MC3 (in words): significantly lower
[3]; Table 3, mice, liver
  Total Flux Liver: 1.05E+09
[3]; Table 3, mice
  Total Flux Lung: 6.76E+06
  Total Flux Spleen: 1.11E+07
IL-6; Table 4
  IL-6: 31
